System: full thickness chondrocytes
Test: In vitro-formed cartilage on membrane inserts: DNA, GAG and collagen contents
Format: cell-based, calves
Method: Membrane inserts (Millicell-CM®, Millipore Corp., Bedford, Mass., USA) were coated with type II collagen (0.5 mg/ml in 0.1N acetic acid; Sigma Chemical Co., St. Louis, Mo., USA) and dried overnight. The membrane inserts were UV sterilized for 30 minutes and soaked in Ham's F12 for 30 minutes prior to cell culturing.
Cartilage was aseptically excised from the full thickness of metacarpal-phalangeal articular cartilage from 9 to 12 months old calves within 24 hours of death as previously described. For the experiment investigating the response of chondrocytes zonal subpopulations to inorganic polyphosphate, cartilage was excised as the superficial-mid zone (top 70%) and the deep-zone (bottom 30%). Chondrocytes were harvested from the tissue by sequential enzymatic digestion (0.5% protease (Sigma Chemical Co., St. Louis, Mo., USA) for 2 hours followed by 0.1% collagenase (Roche Diagnostics GmbH, Mannheim, Germany) overnight). The cells were then seeded on top of membrane inserts (1×10^6 cells per construct) in Ham's F-12 supplemented with 5% fetal bovine serum (FBS) (HyClone, Logan, Utah, USA) and incubated at 37° C. in an atmosphere characterized by 95% relative humidity and 5% CO2. On day 5, the serum concentration was changed to 20% and supplemented with ascorbic acid (100 μg/ml, Sigma Chemical Co., St. Louis, Mo., USA). At this time, cultures were incubated in the presence or absence of various concentrations of sodium phosphate glasses (inorganic polyphosphate; Sigma Chemical Co., St. Louis, Mo., USA) or sodium phosphate buffer. The concentrations of inorganic polyphosphate utilized for each experiment are calculated based on the phosphate content. Cultures were grown for up to 4 weeks following initiation of the inorganic polyphosphate treatment. […]
In vitro and ex vivo-cultured cartilage tissues were harvested and washed twice in PBS. […] The fluorescence was visualized with a Zeiss Axioplan epifluorescence microscope using a wide pass DAPI filter. […]
Cartilage tissues were digested with papain (Sigma Chemical Co., St. Louis, Mo., USA; 40 μg·ml^−1) in digestion buffer (20 mM ammonium acetate, 1 mM EDTA and 2 mM DTT) for 48 hours at 65° C. […] The DNA content was assessed using the Hoechst 33258 dye (Polysciences Inc., Washington, Pa., USA) binding assay and fluorometry (emission wavelength: 458 nm; excitation wavelength: 365 nm). […]
The proteoglycan and collagen contents of cartilage tissues were also measured from aliquots of the papain digest. The proteoglycan content was estimated by quantifying the amount of sulphated GAG using the dimethylmethylene blue dye (Polysciences Inc., Washington, Pa., USA) binding assay and quantifying the colour spectrophotometrically at 525 nm. […] The collagen content was estimated by quantifying the hydroxyproline. […]

[1] = 1 mM, 2 weeks in culture, normalized to DNA content, mean ± SEM

For `O=P(O)(O)O` [Phosphate, sodium phosphate], the “DNA Content” value (1 mM, 2 weeks in culture, mean ± SEM) was 8.5 ± 0.92 µg, the “Collagen Content” value [1] was 105.3 ± 9.5 % of control and the “GAG Content” value [1] was 112.5 ± 14.8 % of control. The “DNA, GAG and collagen contents compared to non-supplemented medium” value (concentrations equivalent to those used for polyphosphate, 2 weeks) was “did not significantly alter”.

Source: patent US20130316015A1, “Methods for Repairing Cartilage” (MOUNT SINAI HOSPITAL, priority 2011, published 2013)
